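Assay format: 96-well plates, 48-hour exposure. Abbreviation: GI50, concentration required for 50% inhibition of growth.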 The source made the active and inactive calls. No stated cut-off is given here; in the data, active = GI50 up to about 1.1 µM and inactive = higher. Square brackets hold non-standard residues; d marks the D form. Peptide text beside a SMILES is read from it. 2Nal = N[CH](Cc1ccc2ccccc2c1)C(=O)O
How the values were obtained:
Assay in all cases: DTP human tumour cell line panel, 48 h
OVCAR-5 = tested on: OVCAR-5
SK-OV-3 = tested on: SK-OV-3
SK-MEL-5 = tested on: SK-MEL-5
MOLT-4 = tested on: MOLT-4
786-0 = tested on: 786-0
SF-295 = tested on: SF-295
SF-539 = tested on: SF-539
UO-31 = tested on: UO-31
NCI-H23 = tested on: NCI-H23
BT-549 = tested on: BT-549
HOP-62 = tested on: HOP-62
COLO 205 = tested on: COLO 205
NCI-H460 = tested on: NCI-H460
UACC-257 = tested on: UACC-257
ACHN = tested on: ACHN
U-251 = tested on: U-251
MDA-MB-435 = tested on: MDA-MB-435
NCI-H226 = tested on: NCI-H226
MDA-N = tested on: MDA-N
UACC-62 = tested on: UACC-62

SMILES	GI50 (OVCAR-5)	GI50 (SK-OV-3)	GI50 (SK-MEL-5)	GI50 (MOLT-4)	GI50 (786-0)	GI50 (SF-295)	GI50 (SF-539)	GI50 (UO-31)	GI50 (NCI-H23)	GI50 (BT-549)	GI50 (HOP-62)	GI50 (COLO 205)	GI50 (NCI-H460)	GI50 (UACC-257)	GI50 (ACHN)	GI50 (U-251)	GI50 (MDA-MB-435)	GI50 (NCI-H226)	GI50 (MDA-N)	GI50 (UACC-62)
O=C(/C=C/c1ccc(O)c(O)c1)NCCc1ccc(-c2ccccc2)cc1	87.7 µM (inactive)	> 100 µM (inactive)	45.8 µM (inactive)	41.3 µM (inactive)	49.7 µM (inactive)	40.8 µM (inactive)	> 100 µM (inactive)	94.8 µM (inactive)	68.4 µM (inactive)	74.5 µM (inactive)	31.3 µM (inactive)	78.3 µM (inactive)	48.9 µM (inactive)	> 100 µM (inactive)	–	–	–	–	–	–
Cc1c(C)n(-c2ccccc2)c2nc(S(C)(=O)=O)nc(S(C)(=O)=O)c12	1.82 µM (inactive)	19.6 µM (inactive)	12.7 µM (inactive)	1.48 µM (inactive)	1.28 µM (inactive)	16.9 µM (inactive)	14 µM (inactive)	1.71 µM (inactive)	7.82 µM (inactive)	–	16.8 µM (inactive)	1.8 µM (inactive)	16.9 µM (inactive)	1.64 µM (inactive)	1.57 µM (inactive)	5.9 µM (inactive)	1.79 µM (inactive)	21.4 µM (inactive)	1.64 µM (inactive)	3.28 µM (inactive)
Cc1cc(C)n(C(=CC(=O)C(Cl)Cl)n2nc(C)cc2C)n1	3.48 µM (inactive)	23.5 µM (inactive)	5.98 µM (inactive)	0.151 µM (active)	2.07 µM (inactive)	10.4 µM (inactive)	3.43 µM (inactive)	4.71 µM (inactive)	2.62 µM (inactive)	2.45 µM (inactive)	3.66 µM (inactive)	13.8 µM (inactive)	6.97 µM (inactive)	1.32 µM (inactive)	6.05 µM (inactive)	5.12 µM (inactive)	2.52 µM (inactive)	0.735 µM (active)	–	1.66 µM (inactive)
Nc1nc(Cl)cc(/N=N\c2ccccc2)n1	72.1 µM (inactive)	66.1 µM (inactive)	15.8 µM (inactive)	18.5 µM (inactive)	30.6 µM (inactive)	30.7 µM (inactive)	78.9 µM (inactive)	42.1 µM (inactive)	21 µM (inactive)	72.4 µM (inactive)	24.1 µM (inactive)	27.5 µM (inactive)	–	36.1 µM (inactive)	26.6 µM (inactive)	–	> 100 µM (inactive)	45.2 µM (inactive)	–	28.2 µM (inactive)
COc1ccc(C2c3c(n(C)c(=O)n(C)c3=O)OC(N(C)C)(N(C)C)C2(F)F)cc1 (centres undefined)	> 100 µM (inactive)	> 100 µM (inactive)	> 100 µM (inactive)	2.92 µM (inactive)	> 100 µM (inactive)	> 100 µM (inactive)	> 100 µM (inactive)	> 100 µM (inactive)	> 100 µM (inactive)	> 100 µM (inactive)	> 100 µM (inactive)	> 100 µM (inactive)	> 100 µM (inactive)	> 100 µM (inactive)	> 100 µM (inactive)	> 100 µM (inactive)	> 100 µM (inactive)	> 100 µM (inactive)	–	> 100 µM (inactive)
O=c1[nH]c(=O)n(C2OC(CO)C(O)C2O)c2c1CCCC2 (centres undefined)	> 100 µM (inactive)	> 100 µM (inactive)	> 100 µM (inactive)	> 100 µM (inactive)	> 100 µM (inactive)	> 100 µM (inactive)	> 100 µM (inactive)	> 100 µM (inactive)	> 100 µM (inactive)	–	> 100 µM (inactive)	> 100 µM (inactive)	> 100 µM (inactive)	> 100 µM (inactive)	> 100 µM (inactive)	> 100 µM (inactive)	> 100 µM (inactive)	> 100 µM (inactive)	> 100 µM (inactive)	> 100 µM (inactive)
COc1ccc(-c2cc(-c3ccc(Nc4ccnc5cc(Cl)ccc45)cc3)nc(N)c2C#N)cc1	> 100 µM (inactive)	> 100 µM (inactive)	–	> 100 µM (inactive)	> 100 µM (inactive)	> 100 µM (inactive)	> 100 µM (inactive)	27.4 µM (inactive)	> 100 µM (inactive)	> 100 µM (inactive)	> 100 µM (inactive)	> 100 µM (inactive)	> 100 µM (inactive)	–	> 100 µM (inactive)	> 100 µM (inactive)	> 100 µM (inactive)	> 100 µM (inactive)	–	> 100 µM (inactive)
O=C(CCCN1CCC2(CC1)CC(c1ccccc1)OC2=O)c1ccc(F)cc1 (centres undefined)	45.9 µM (inactive)	> 100 µM (inactive)	15 µM (inactive)	28.3 µM (inactive)	24.1 µM (inactive)	25 µM (inactive)	28.4 µM (inactive)	19.4 µM (inactive)	53.7 µM (inactive)	–	29.6 µM (inactive)	17.3 µM (inactive)	48.1 µM (inactive)	23.6 µM (inactive)	54.6 µM (inactive)	74.5 µM (inactive)	41.3 µM (inactive)	53.7 µM (inactive)	49.4 µM (inactive)	25.2 µM (inactive)
C=C1C(=O)O[C@H]2[C@H]3O[C@@H](C[C@@H]12)[C@@]1(C)CC[C@H](O1)[C@H](C)CCC[C@H]3C	1.67 µM (inactive)	7.38 µM (inactive)	1.42 µM (inactive)	1.23 µM (inactive)	1.31 µM (inactive)	4.82 µM (inactive)	–	1.56 µM (inactive)	1.75 µM (inactive)	0.811 µM (active)	4.74 µM (inactive)	1.75 µM (inactive)	1.76 µM (inactive)	1.91 µM (inactive)	1.51 µM (inactive)	1.5 µM (inactive)	1.32 µM (inactive)	1.53 µM (inactive)	–	1.81 µM (inactive)
COc1ccc(CCCNC(=O)c2cc(OC)c(OC)cc2CCO)cc1OC	> 100 µM (inactive)	> 100 µM (inactive)	> 100 µM (inactive)	> 100 µM (inactive)	> 100 µM (inactive)	> 100 µM (inactive)	> 100 µM (inactive)	> 100 µM (inactive)	> 100 µM (inactive)	> 100 µM (inactive)	> 100 µM (inactive)	> 100 µM (inactive)	> 100 µM (inactive)	> 100 µM (inactive)	> 100 µM (inactive)	> 100 µM (inactive)	> 100 µM (inactive)	> 100 µM (inactive)	–	> 100 µM (inactive)
CC(C)C(NC(=O)C(CCCCN)NC(=O)C(Cc1c[nH]c2ccccc12)NC(=O)C(Cc1ccc(O)cc1)NC(=O)C(CS)NC(=O)C(N)Cc1ccc2ccccc2c1)C(=O)NC(CS)C(=O)NC(C(N)=O)C(C)O (centres undefined) (H-[2Nal]CYWKVCT-NH2; configuration not given here)	> 12.5 µM (inactive)	> 12.5 µM (inactive)	> 12.5 µM (inactive)	> 12.5 µM (inactive)	> 12.5 µM (inactive)	> 12.5 µM (inactive)	> 12.5 µM (inactive)	> 12.5 µM (inactive)	> 12.5 µM (inactive)	–	> 12.5 µM (inactive)	> 12.5 µM (inactive)	> 12.5 µM (inactive)	> 12.5 µM (inactive)	> 12.5 µM (inactive)	> 12.5 µM (inactive)	> 12.5 µM (inactive)	> 12.5 µM (inactive)	> 12.5 µM (inactive)	> 12.5 µM (inactive)

Source: ChEMBL document CHEMBL1201862, “PubChem BioAssay data set” (2004)
